Results: patent US8901129B2, “Methods of facilitating neural cell survival using GDNF family ligand (GFL) mimetics or RET signaling pathway activators” (GeneCode AS, priority 2009, dated 2014)

Columns and labels:
GFRα3/RET = target: T1, GFRα3/RET (Homo sapiens, UniProt O60609+P07949); experiment: RET phosphorylation by BT compounds, IP and Western blotting (FIG. 6B); assay type: cell-based; conditions: 100 μM, 15 min; MG87 RET fibroblasts transfected with GFRα3
T1 construct: Full-length human GFRα3 cDNA (Wang et al., 2006); expressed in transfected cells; host or cells: MG87RET murine fibroblasts transiently transfected with GFRα3
Description: (§1) MG87RET cells were plated on 35 mm tissue culture dishes the day before the experiment. Cells were transfected with GFRα1, GFRα3 or with an vector encoding for GFP. On the day of the experiment cells were starved for 4 hours in serum-free DMEM and stimulated with the investigated compounds (structures shown in the description of FIG. 6, above) at 100 μM concentration or with 100 ng/ml of GDNF or ARTN (positive control) for 15 min. Then cells were washed once with ice-cold PBS containing 1 mM Na3VO4 and lysed on ice in 1 ml per well of RIPA-modified buffer (50 mM Tris-HCl, pH 7.4, 150 mM NaCl, 1 mM EDTA, 1% NP-40, 1% TX-100, 10% glycerol, EDTA-free protease inhibitor cocktail (Roche), 1 mM Na3VO4, 2.5 mg/ml of sodium deoxycholate, 1 mM PMSF. Ret was immunoprecipitated by anti-RET C-20 antibodies (Santa-Cruz Biotechnology, Inc.). Precipitated proteins were resolved on 7.5% SDS-PAGE and then transferred onto a nitrocellulose membrane. Membrane was blocked for 15 min at room temperature by 10% nonfat dry milk in TBS-T and probed with anti-phosphotyrosine antibodies (clone 4G10, Upstate Biotechnology) diluted 1:1000 in TBS-T containing 3% nonfat dry milk for 2 hours at room temperature. The membranes were washed 3 times for 5 min in TBS-T and incubated in the 1:3000 solution of secondary anti-mouse antibodies conjugated with HRP (DAKO) diluted in TBS-T containing 3% nonfat dry milk for 45 min at room temperature. Membranes were washed with TBS-T for 5×10 min. Stained bands were visualized with ECL reagent (Pierce) using LAS3000 imaging program. To confirm equal loading of the proteins, membranes were probed with anti-RET C-20 antibodies (1:500, Santa-Cruz Biotechnology, inc.) after stripping. We used secondary anti-goat antibodies conjugated with HRP (1:1500, DAKO) to detect C-20.

6-OHDA-treated rats = experiment: Side effects / toxic effects after intrastriatal injection in 6-OHDA-treated rats; assay type: in vivo; conditions: injected intrastriatally
Description: GDNF mimetics compounds, GDNF or vehicle is administered to the striatum at 3 weeks after the exposure to the neurotoxin 6-OHDA. The selective damage to dopaminergic neurons in the SNc, as well as striatal levels of dopamine and its metabolites are evaluated 12 weeks after the injection of 6-OHDA with tyrosine hydroxylase (TH) immunohistochemistry and HPLC, respectively. In addition, the behavioral impairment of rats is evaluated by forelimb asymmetry test (cylinder test), amphetamine induced rotation asymmetry test and Y-maze test for stereotypic spontaneous rotation deficits.
On day 21, rats are re-anesthetized with 5% isoflurane (in 70% N2O and 30% O2; flow 300 ml/min) and placed in a stereotactic frame. During the operation concentration of anesthetic is reduced to 1-1.5%. The rectal temperature is maintained at 37.0±1.0° C. with a homeothermic blanket system. The right brain hemisphere is exposed through a small craniectomy to the skull. A stereotaxic injection of the test compound, GDNF or vehicle is made into the right striatum. Each dosing solution is infused at a speed of 1 μl/min and is equally distributed between 4 sites at the following coordinates: AP+1.0, ML+2.8, DV−6.0, −5.5, −5.0 and −4.4 mm. The cannula is left in place for another 5 min before being withdrawn. The hole in the skull is subsequently filled with repair material and the skin is closed and disinfected. The rats are allowed to recover from anesthesia and are carefully monitored for possible post surgical complications. The animals are returned to the home cages with ad libitum access to food and water.
Animals are monitored daily by laboratory personnel. […] Definitions of acceptable endpoints include: no spontaneous movements and inability to drink or eat in 24-h observation period, massive bleeding, spontaneous inflammation, missing anatomy, swelling or tumors larger than 20 mm, and inability to right itself in 30 sec period.

[1] = test system: GFRα1/RET-expressing cells; experiment: Reporter-gene luciferase activity assay, dose-response (FIG. 5); assay type: cell-based; conditions: 1-50 μM, 24 h
Description: Generation of stable cell lines. MG87RET murine fibroblast were plated on […] dishes and transfected with 4 μg of G4-Luc, Gal4-Elk (Baloh et al., 2000) and GFRα1 expressing plasmid (“αLUC” cells) or empty vector (“NOα” cells) containing neomycin-resistance gene in ratio 4:1:1 using Lipofectamine 2000 (Invitrogen) for DNA delivery as described by manufacturer. The following day, cells were trypsinized and plated in low density on 10-cm tissue culture dishes. Stable transformants were selected in the presence of 500-750 μg/ml geneticin (Invitrogen). Established cell lines were maintained in DMEM, 10% fetal bovine serum (FBS), 100 μg/ml Normocin (Invivogene), 2 μg/ml of puromycin, 500 μg/ml of geneticin, 15 mM HEPES, pH 7.2. Pathdetect Elk-1 system and human GFRα1-expressing plasmid (“Strat-Luc” cells) or empty vector (control cell line “NOStratis”) cells were selected and maintained in the DMEM, 10% FBS, 100 μg/ml Normocin (Invivogene), 2 μg/ml of puromycin, 500 μg/ml of G418, 2 μg/ml of blasticidin S, 15 mM HEPES, pH 7.2.
Cells were plated on 96-well plates (or 384-well) in cell density 20 000 (or 5 000 for 384-well format) cells per well in DMEM, 10% FBS, 100 μg/ml Normocin, 2 μg/ml puromycin, 500 μg/ml of G418, 15 mM HEPES, pH 7.2 one day before assay. The following day, the compounds were added to a final concentration of 1-50 μM. Structures of the compounds are shown in the description of FIG. 5, above. Cells were allowed to produce luciferase for 24 h, then lysed in 20 μl of 1×Cell culture lysis reagent (Promega) and freeze-thawed once to ensure complete lysis. Then 5 μl of the lysate was mixed (on ice) with 20 μl of luciferase assay substrate (Promega) in a well of black Isoplate (PerkinElmer). Luminescence was counted on MicroBeta 2 counter (PerkinElmer) twice. Data are presented as fold induction, where the corresponding concentration of DMSO was used as a reference.

GFRα1/RET = target: T2, GFRα1/RET (Homo sapiens, UniProt P07949+P56159); experiment: RET phosphorylation by BT compounds, IP and Western blotting (FIG. 6A); assay type: cell-based; conditions: 100 μM, 15 min; MG87 RET fibroblasts transfected with GFRα1
T2 construct: Full-length human GFRα1 cDNA (Sidorova et al., unpublished) subcloned in pcDNA6; expressed in transfected cells; host or cells: MG87RET murine fibroblasts transiently transfected with GFRα1
Description: as §1

T2 sequence (P56159 25-429 limits assumed, species assumed): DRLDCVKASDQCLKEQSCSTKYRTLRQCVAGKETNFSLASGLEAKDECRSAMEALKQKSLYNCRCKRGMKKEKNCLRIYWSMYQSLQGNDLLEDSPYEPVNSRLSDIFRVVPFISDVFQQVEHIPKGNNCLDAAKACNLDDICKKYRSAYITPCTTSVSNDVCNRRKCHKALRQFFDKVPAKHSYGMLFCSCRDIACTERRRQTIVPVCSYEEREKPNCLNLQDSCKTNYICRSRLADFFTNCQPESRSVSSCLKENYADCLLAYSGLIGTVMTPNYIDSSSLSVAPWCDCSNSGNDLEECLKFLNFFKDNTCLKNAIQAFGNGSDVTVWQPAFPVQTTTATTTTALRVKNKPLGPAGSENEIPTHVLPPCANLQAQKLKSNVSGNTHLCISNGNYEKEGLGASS
T2 sequence (P07949 29-1114, species assumed): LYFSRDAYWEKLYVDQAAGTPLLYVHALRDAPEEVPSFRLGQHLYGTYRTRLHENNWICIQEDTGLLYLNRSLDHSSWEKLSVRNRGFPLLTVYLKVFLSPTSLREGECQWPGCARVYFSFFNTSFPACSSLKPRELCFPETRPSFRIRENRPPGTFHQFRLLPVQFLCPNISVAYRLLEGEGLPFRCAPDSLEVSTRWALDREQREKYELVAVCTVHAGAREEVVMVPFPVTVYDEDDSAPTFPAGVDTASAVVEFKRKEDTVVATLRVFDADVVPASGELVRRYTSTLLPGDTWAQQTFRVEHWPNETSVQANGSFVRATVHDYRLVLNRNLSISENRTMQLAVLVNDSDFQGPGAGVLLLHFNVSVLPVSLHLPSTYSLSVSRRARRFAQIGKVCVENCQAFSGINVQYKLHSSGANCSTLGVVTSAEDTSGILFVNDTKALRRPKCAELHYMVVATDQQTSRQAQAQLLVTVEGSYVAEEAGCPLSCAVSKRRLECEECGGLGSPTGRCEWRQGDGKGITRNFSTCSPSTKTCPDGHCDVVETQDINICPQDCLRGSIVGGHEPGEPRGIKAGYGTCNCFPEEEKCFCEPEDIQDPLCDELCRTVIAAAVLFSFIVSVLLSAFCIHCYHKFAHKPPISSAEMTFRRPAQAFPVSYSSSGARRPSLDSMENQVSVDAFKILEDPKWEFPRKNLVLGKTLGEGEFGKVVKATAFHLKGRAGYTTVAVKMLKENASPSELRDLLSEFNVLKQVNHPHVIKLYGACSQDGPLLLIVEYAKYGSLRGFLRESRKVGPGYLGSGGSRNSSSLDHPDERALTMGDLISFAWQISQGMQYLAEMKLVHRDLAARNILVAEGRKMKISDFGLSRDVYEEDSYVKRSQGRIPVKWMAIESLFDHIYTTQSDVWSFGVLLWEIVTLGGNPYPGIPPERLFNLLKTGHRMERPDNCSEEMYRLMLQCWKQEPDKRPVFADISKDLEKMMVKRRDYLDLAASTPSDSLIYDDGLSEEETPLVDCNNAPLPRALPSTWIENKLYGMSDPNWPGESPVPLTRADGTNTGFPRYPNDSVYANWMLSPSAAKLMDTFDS
T1 sequence (O60609 32-374 limits assumed): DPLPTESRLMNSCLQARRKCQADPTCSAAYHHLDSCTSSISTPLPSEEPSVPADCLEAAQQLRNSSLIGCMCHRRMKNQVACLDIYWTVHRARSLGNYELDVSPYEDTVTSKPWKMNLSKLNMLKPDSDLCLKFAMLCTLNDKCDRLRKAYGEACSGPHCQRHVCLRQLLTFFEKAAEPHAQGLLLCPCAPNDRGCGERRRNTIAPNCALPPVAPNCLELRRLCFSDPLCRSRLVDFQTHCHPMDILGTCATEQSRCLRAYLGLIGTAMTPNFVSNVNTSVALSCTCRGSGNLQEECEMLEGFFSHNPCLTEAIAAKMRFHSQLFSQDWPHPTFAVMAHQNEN
T1 sequence (P07949 29-1114): as the sequence (P07949 29-1114, species assumed) above

Row | Compound | RET phosphorylation via GFRα3 (GFRα3/RET) | toxic effects in behavioral assays (6-OHDA-treated rats) | induction of luciferase expression [1] | RET phosphorylation via GFRα1 (GFRα1/RET)
1 | CCN(CC)S(=O)(=O)c1ccc(OC)c(N2CCN(C(=O)c3cc(F)ccc3C(F)(F)F)CC2)c1 [BT13] | strongly activated RET | did not cause toxic effects | in a dose-dependent manner induce luciferase expression | strongly activated RET
2 | COc1ccc(S(=O)(=O)N2CCc3ccccc3C2)cc1N1CCN(C(=O)c2cc(F)ccc2C(F)(F)F)CC1 [BT16] | likely the weaker GFRα3/RET agonists | did not cause toxic effects | in a dose-dependent manner induce luciferase expression | strongly activated RET
3 | COc1cc2c(cc1OC)CN(S(=O)(=O)c1ccc(OC)c(N3CCN(C(=O)c4cc(F)ccc4C(F)(F)F)CC3)c1)CC2 [BT18] | likely the weaker GFRα3/RET agonists | did not cause toxic effects | active | likely the weaker GFRα1/RET agonists
